What all share (type): in vivo, mouse
For assay [1], the system named is C57BL/6J mice. Briefly: T-maze spontaneous alternation test (spatial working memory). The note with it: old mice and old mice subjected to FMT from young donors; PLX5622 chow versus respective control mice; FIG. 15B. The protocol:
(§1) In order to acutely deplete the gut microbiota, 15-16 months old SPF males were treated via oral gavage with a mixture of antibiotics (ABX), containing Cefoxitin (Santa Cruz Biotechnology), Gentamicin (Sigma-Aldrich) Metronidazole (Sigma-Aldrich), and Vancomycin (Hikma-pharma), each 10 mg/kg in sterile 1×PBS, for three consecutive days. On the fourth day, the mice were treated with one dose of Clindamycin hydrochloride (33.3 mg/kg) (Sigma-Aldrich). Fecal microbiota transplantations (FMTs) were started 24 h later. To deplete csf1-dependent cells in vivo, including microglia, mice were provided with CSF1R-inhibitor PLX5622 (Plexxicon Inc.) mixed into AIN-76A standard chow at 1200 mg/kg (Research Diets Inc.) ad libitum. Respective controls received AIN-76A standard chow. Mice were injected with 5 mg/kg δ-valerobetaine (MCAT, Germany) 1 h before behavioral testing.
(§2) For microbiota depletion studies, SPF mice were treated with 1 mg/ml of ampicillin (Auromedics), neomycin sulfate (Fisher), streptomycin (Sigma) and 0.5 mg/ml of vancomycin (Sagent) in the drinking water for 4-5 weeks (Khosravi et al., 2014). These mice were recolonized via FMT, which was achieved by oral gavage of a faecal slurry. Recipient mice had the food removed from the cage for 2 h prior to FMT. The faecal slurry was obtained by pooling faecal pellets from 8-14 donor mice. The pellets were weighed and resuspended by vortexing for 1 min in 1 mL PBS per 300 mg of faeces. After pelleting larger particles by centrifugation at 500×g for 5 min, the supernatant was collected for FMT. Each recipient mouse received 150 μl of faecal slurry by oral gavage. The remaining slurry was stored at −80° C. for 16S rRNA sequencing. Following FMT, the cages of recipient mice were replenished with dirty bedding and fresh faecal pellets from donor mice once and twice a week, respectively. Faecal pellets for 16S rRNA sequencing were collected the day before FMT and at the end of the experiment and were stored at −80° C. for DNA extraction. For re-colonization of ABX treated mice, FMTs from 8 weeks old or 15-16 months old males were undergone. Fresh fecal pellets are collected under a sterile hood and directly thoroughly homogenized in 0.1% L-Cysteine hydrochloride monohydrate in 1×PBS in order to maintain anaerobic microbes. The homogenates were spun down for 1 min, 200 g at 4° C. and the turbid supernatant was used to orally and rectally gavage the recipient mice. The FMT was performed twice 72 h apart.
(§3) NNN-trimethyl-5-aminovalerate was dissolved in 0.9% NaCl and administered i.p. at a dose of 200 mg/kg in a volume of 10 ml/kg. As control the vehicle NaCl was injected.
(§4) Mice were tested 40 min after drug- or vehicle injection or 4 weeks after FMT. We first performed the training run for the Novel-object recognition test, followed by the T maze test and then 6 h after the training session mice were tested in the Novel object recognition test. Spatial working memory was tested using the continuous spontaneous alternation task in a T-maze as described previously (Spowart-Manning, L. et al). Briefly, animals were set into the base of a T-maze and allowed to explore a randomly assigned T-maze arm until it returned to the base arm. Subsequently, the blocked arm was opened, and the animal was allowed to explore the complete maze. Once one arm of the T-maze was entered, the other arm was blocked until the animal returned to the base arm. Then, the exit of the base arm was blocked for 5 s and the animal was allowed to explore the maze again. The experiment was stopped after 14 free choice arm entries. Arm entries were scored as alternations if an animal chose the opposing arm compared to the arm visited immediately prior to the scored instance. The Novel Object Recognition (NOR) task was applied to evaluate recognition memory as published previously (Antunes, M. & Biala, G. et al). During the habituation phase, each mouse was allowed to explore two similar objects within a total exploration time of 20 s. […]

The test system of the next assay is microglia. Briefly: Microglia depletion verified by Iba-1 immunohistochemistry. The note with it: 1200 mg/kg in AIN-76A chow ad libitum; cortex and hippocampus; FIG. 15E-F. The protocol: as §1
Mice were lethally anesthetized with ketamine (100 mg/kg bodyweight) and xylazine (10 mg/kg body weight) followed by perfusion with 1×PBS through the left heart chamber. For histology, the brains were kept overnight in 4% PFA. The brains were then dehydrated in 30% sucrose and embedded in Tissue-Tek O.C.T.™ compound (Sakura Finetek Germany GmbH). […] Fluorescence imaging was performed with BZ-9000 Biorevo microscope (Keyence). Iba-1+DAPI+ cells were quantified using ImageJ (v. 1.53c).

Assay [2] concerns C57BL/6J mice. As to the kind of experiment: Novel object recognition (NOR) test (recognition memory). The conditions noted are these: old mice and old mice subjected to FMT from young donors; PLX5622 chow versus respective control mice; FIG. 15C-D. On the procedure:
as §1, §2, §3, §4

For the molecule `COc1ncc(F)cc1CNc1ccc(Cc2c[nH]c3ncc(C)cc23)c(F)n1` [PLX5622, reference compound], the “T maze performance of mice lacking microglia” value in the assay with C57BL/6J mice [1] is reported as “unchanged”. Further, the “microglia in brain tissue (Iba-1 immunohistochemistry)” value in the assay with microglia was “almost complete absence”. Further, the “NOR performance of mice lacking microglia” value with C57BL/6J mice [2] is given as “unchanged”.

For the origin of these results see US20260276656A1, “GUT MICROBIOTA-RELATED METHODS FOR TREATING DEMENTIA AND AGE-DEPENDENT COGNITIVE DECLINE” (Albert-Ludwigs-Universitat Freiburg, priority 2019, published 2026).
